Measurements from article PMC5146859, “Phase 1/2 study of pacritinib, a next generation JAK2/FLT3 inhibitor, in myelofibrosis or other myeloid malignancies” (Journal of Hematology & Oncology, 2016).
Entries after “also recorded” stand apart in the source; their conditions may differ.

Test system: patients with advanced myeloid malignancies
Assay: Phase 1 safety: adverse events (NCIC-CTCAE version 3.0)
Format: in vivo, human
Procedure: At screening/baseline, patients underwent a medical history, physical examination, vital sign assessment, ECOG PS assessment, electrocardiogram, and assessment of hematologic parameters and blood chemistry. Hematology/blood chemistry, physical examinations, and vital sign assessments were performed throughout treatment. Toxicity was assessed using the National Cancer Institute Common Terminology Criteria for Adverse Events (NCIC-CTCAE), version 3.0, with relationship to treatment assigned by the investigator and were recorded from the first dose of pacritinib until 30 days after the last dose. Bone marrow biopsy and/or aspirate samples were drawn at baseline, on day 1 of cycle 4 and cycle 10, as clinically indicated, and at the termination visit. Disease response and progression were determined using the relevant International Working Group (IWG) criteria.
The efficacy-evaluable population included those patients with a baseline and corresponding follow-up value. The safety population included all enrolled patients who received ≥1 dose of pacritinib.

[1] = phase 1, 500 mg QD cohort of seven
[2] = phase 1, all patients n = 43, Grade 1/2
[3] = phase 1, all patients n = 43, Grade 3/4

## C1=C/COCc2cc(ccc2OCCN2CCCC2)Nc2nccc(n2)-c2cccc(c2)COC/1 [pacritinib, 11-(2-pyrrolidin-1-yl-ethoxy)-14,19-dioxa-5,7,26-triaza-tetracyclo[19.3.1.1(2,6). 1(8,12)]heptacosa-1(25),2(26),3,5,8,10,12(27),16,21,23-decaene]
Phase 1, 400 mg, n = 6
  Treatment-emergent AE: Petechiae: 0 n (%)
  Treatment-emergent AE: Pyrexia: 2 (33.3) n (%)
  Treatment-emergent AE: Skin lesion: 0 n (%)
  Treatment-emergent AE: Thrombocytopenia: 2 (33.3) n (%)
  Treatment-emergent AE: Upper respiratory tract infection: 0 n (%)
  Treatment-emergent AE: Vomiting: 3 (50.0) n (%)
[1]
  Patients who discontinued treatment due to AEs: two
  Patients who experienced a serious AE: three
  Patients who required dose interruptions: three
  Patients who required dose reductions: three
Phase 1, 500 mg, n = 7
  Treatment-emergent AE: Abdominal distension: 1 (14.3) n (%)
  Treatment-emergent AE: Abdominal pain: 0 n (%)
  Treatment-emergent AE: Anemia: 2 (28.6) n (%)
  Treatment-emergent AE: Any AE: 7 (100.0) n (%)
  Treatment-emergent AE: Asthenia: 1 (14.3) n (%)
  Treatment-emergent AE: Back pain: 1 (14.3) n (%)
  Treatment-emergent AE: Cardiac murmur: 1 (14.3) n (%)
  Treatment-emergent AE: Chills: 1 (14.3) n (%)
  Treatment-emergent AE: Constipation: 1 (14.3) n (%)
  Treatment-emergent AE: Cough: 0 n (%)
  Treatment-emergent AE: Decreased appetite: 0 n (%)
  Treatment-emergent AE: Dehydration: 1 (14.3) n (%)
  Treatment-emergent AE: Diarrhea: 7 (100.0) n (%)
  Treatment-emergent AE: Dizziness: 1 (14.3) n (%)
  Treatment-emergent AE: Dyspnea: 1 (14.3) n (%)
  Treatment-emergent AE: Edema peripheral: 2 (28.6) n (%)
  Treatment-emergent AE: Epistaxis: 0 n (%)
  Treatment-emergent AE: Fatigue: 3 (42.9) n (%)
  Treatment-emergent AE: Hyperbilirubinemia: 0 n (%)
  Treatment-emergent AE: Hyperuricemia: 1 (14.3) n (%)
  Treatment-emergent AE: Insomnia: 1 (14.3) n (%)
  Treatment-emergent AE: Nausea: 5 (71.4) n (%)
  Treatment-emergent AE: Neutropenia: 0 n (%)
  Treatment-emergent AE: Night sweats: 1 (14.3) n (%)
  Treatment-emergent AE: Pain in extremity: 0 n (%)
  Treatment-emergent AE: Petechiae: 1 (14.3) n (%)
  Treatment-emergent AE: Pyrexia: 2 (28.6) n (%)
  Treatment-emergent AE: Skin lesion: 0 n (%)
  Treatment-emergent AE: Thrombocytopenia: 1 (14.3) n (%)
  Treatment-emergent AE: Upper respiratory tract infection: 0 n (%)
  Treatment-emergent AE: Vomiting: 3 (42.9) n (%)
Phase 1, 600 mg, n = 6
  Treatment-emergent AE: Abdominal distension: 2 (33.3) n (%)
  Treatment-emergent AE: Abdominal pain: 1 (16.7) n (%)
  Treatment-emergent AE: Anemia: 3 (50.0) n (%)
  Treatment-emergent AE: Any AE: 6 (100.0) n (%)
  Treatment-emergent AE: Asthenia: 2 (33.3) n (%)
  Treatment-emergent AE: Back pain: 0 n (%)
  Treatment-emergent AE: Cardiac murmur: 2 (33.3) n (%)
  Treatment-emergent AE: Chills: 1 (16.7) n (%)
  Treatment-emergent AE: Constipation: 1 (16.7) n (%)
  Treatment-emergent AE: Cough: 0 n (%)
  Treatment-emergent AE: Decreased appetite: 1 (16.7) n (%)
  Treatment-emergent AE: Dehydration: 1 (16.7) n (%)
  Treatment-emergent AE: Diarrhea: 6 (100.0) n (%)
  Treatment-emergent AE: Dizziness: 1 (16.7) n (%)
  Treatment-emergent AE: Dyspnea: 3 (50.0) n (%)
  Treatment-emergent AE: Edema peripheral: 3 (50.0) n (%)
  Treatment-emergent AE: Epistaxis: 1 (16.7) n (%)
  Treatment-emergent AE: Fatigue: 1 (16.7) n (%)
  Treatment-emergent AE: Hyperbilirubinemia: 0 n (%)
  Treatment-emergent AE: Hyperuricemia: 3 (50.0) n (%)
  Treatment-emergent AE: Insomnia: 0 n (%)
  Treatment-emergent AE: Nausea: 4 (66.7) n (%)
  Treatment-emergent AE: Neutropenia: 0 n (%)
  Treatment-emergent AE: Night sweats: 1 (16.7) n (%)
  Treatment-emergent AE: Pain in extremity: 1 (16.7) n (%)
  Treatment-emergent AE: Petechiae: 0 n (%)
  Treatment-emergent AE: Pyrexia: 2 (33.3) n (%)
  Treatment-emergent AE: Skin lesion: 0 n (%)
  Treatment-emergent AE: Thrombocytopenia: 1 (16.7) n (%)
  Treatment-emergent AE: Upper respiratory tract infection: 0 n (%)
  Treatment-emergent AE: Vomiting: 3 (50.0) n (%)
[2]
  Treatment-emergent AE: Abdominal distension: 9 (20.9) n (%)
  Treatment-emergent AE: Abdominal pain: 6 (14.0) n (%)
  Treatment-emergent AE: Anemia: 3 (7.0) n (%)
  Treatment-emergent AE: Any AE: 8 (18.6) n (%)
  Treatment-emergent AE: Asthenia: 6 (14.0) n (%)
  Treatment-emergent AE: Back pain: 7 (16.3) n (%)
  Treatment-emergent AE: Cardiac murmur: 6 (14.0) n (%)
  Treatment-emergent AE: Chills: 5 (11.6) n (%)
  Treatment-emergent AE: Constipation: 11 (25.6) n (%)
  Treatment-emergent AE: Cough: 5 (11.6) n (%)
  Treatment-emergent AE: Decreased appetite: 8 (18.6) n (%)
  Treatment-emergent AE: Dehydration: 5 (11.6) n (%)
  Treatment-emergent AE: Diarrhea: 28 (65.1) n (%)
  Treatment-emergent AE: Dizziness: 6 (14.0) n (%)
  Treatment-emergent AE: Dyspnea: 9 (20.9) n (%)
  Treatment-emergent AE: Edema peripheral: 10 (23.3) n (%)
  Treatment-emergent AE: Epistaxis: 7 (16.3) n (%)
  Treatment-emergent AE: Fatigue: 9 (20.9) n (%)
  Treatment-emergent AE: Hyperbilirubinemia: 5 (11.6) n (%)
  Treatment-emergent AE: Hyperuricemia: 5 (11.6) n (%)
  Treatment-emergent AE: Insomnia: 7 (16.3) n (%)
  Treatment-emergent AE: Nausea: 19 (44.2) n (%)
  Treatment-emergent AE: Neutropenia: 2 (4.7) n (%)
  Treatment-emergent AE: Night sweats: 6 (14.0) n (%)
  Treatment-emergent AE: Pain in extremity: 5 (11.6) n (%)
  Treatment-emergent AE: Petechiae: 5 (11.6) n (%)
  Treatment-emergent AE: Pyrexia: 9 (20.9) n (%)
  Treatment-emergent AE: Skin lesion: 5 (11.6) n (%)
  Treatment-emergent AE: Thrombocytopenia: 2 (4.7) n (%)
  Treatment-emergent AE: Upper respiratory tract infection: 5 (11.6) n (%)
  Treatment-emergent AE: Vomiting: 16 (37.2) n (%)
[3]
  Treatment-emergent AE: Abdominal distension: 0 n (%)
  Treatment-emergent AE: Abdominal pain: 1 (2.3) n (%)
  Treatment-emergent AE: Anemia: 7 (16.3) n (%)
  Treatment-emergent AE: Any AE: 35 (81.4) n (%)
  Treatment-emergent AE: Asthenia: 2 (4.7) n (%)
  Treatment-emergent AE: Back pain: 0 n (%)
  Treatment-emergent AE: Cardiac murmur: 0 n (%)
  Treatment-emergent AE: Chills: 0 n (%)
  Treatment-emergent AE: Constipation: 0 n (%)
  Treatment-emergent AE: Cough: 0 n (%)
  Treatment-emergent AE: Decreased appetite: 0 n (%)
  Treatment-emergent AE: Dehydration: 0 n (%)
  Treatment-emergent AE: Diarrhea: 3 (7.0) n (%)
  Treatment-emergent AE: Dizziness: 0 n (%)
  Treatment-emergent AE: Dyspnea: 0 n (%)
  Treatment-emergent AE: Edema peripheral: 2 (4.7) n (%)
  Treatment-emergent AE: Epistaxis: 1 (2.3) n (%)
  Treatment-emergent AE: Fatigue: 4 (9.3) n (%)
  Treatment-emergent AE: Hyperbilirubinemia: 0 n (%)
  Treatment-emergent AE: Hyperuricemia: 1 (2.3) n (%)
  Treatment-emergent AE: Insomnia: 0 n (%)
  Treatment-emergent AE: Nausea: 0 n (%)
  Treatment-emergent AE: Neutropenia: 3 (7.0) n (%)
  Treatment-emergent AE: Night sweats: 0 n (%)
  Treatment-emergent AE: Pain in extremity: 0 n (%)
  Treatment-emergent AE: Petechiae: 0 n (%)
  Treatment-emergent AE: Pyrexia: 3 (7.0) n (%)
  Treatment-emergent AE: Skin lesion: 0 n (%)
  Treatment-emergent AE: Thrombocytopenia: 6 (14.0) n (%)
  Treatment-emergent AE: Upper respiratory tract infection: 0 n (%)
  Treatment-emergent AE: Vomiting: 0 n (%)
Phase 1, listing per patient and SAE
  SAE Management/Outcome: Fatal; also recorded: Dose not changed; recovered/resolved with sequelae; also recorded: Drug withdrawn; recovered/resolved with sequelae; also recorded: Drug interrupted; recovered/resolved with sequelae
Phase 1, n = 43
  Deaths attributed to AEs: Seven
  Discontinuations because of an AE considered treatment related: three
  Dose interruptions due to AEs: 18 patients
  Dose reductions due to AEs: 9 patients
  Grade 3/4 anemia: 16.3%
  Grade 3/4 thrombocytopenia: 14.0%
  Grade 3 treatment-related AEs: 20.9%
  Grade 4 treatment-related AEs: 4.7%
  Patients who died during study participation: 32.6%
  Patients who discontinued pacritinib because of an AE: Eight
  Patients with SAEs: 44.2%
  Patients with SAEs considered treatment related: 9.3%
  Treatment-related AE: diarrhea: 65.1%
  Treatment-related AE: nausea: 34.9%
  Treatment-related AE: thrombocytopenia: 11.6%
  Treatment-related AE: vomiting: 23.3%
